# “Also recorded” adds a separate entry of the source.
# Experiments:
# Assay type in all cases: in vivo, rat
# [1] = system: miR-499, miR-208b, Myh6, Myh7, Myh7b, HP1β; assay: Cardiac tissue markers by real-time PCR, Northern and Western blot, 4% NaCl diet (Example 1); conditions: 4% NaCl HS diet
# Text: This regulation of miR-499 and miR-208b was confirmed by Northern blot analysis (FIG. 2B).
# To assess the regulation of the myosin host genes, we examined Myh6, Myh7, and Myh7b mRNA levels.
# For in vivo real-time PCR analysis, RNA was extracted from cardiac tissue using Trizol (Invitrogen) after which two μg RNA from each tissue sample was used to generate cDNA using Super Script II reverse transcriptase per manufacturer's specifications (Invitrogen). To detect the level of miR-208 RT-PCR was performed using the Taqman MicroRNA assay (Applied Biosystems, ABI) according the manufacturer's recommendations, using 10-100 ng of total RNA. The expression of a subset of genes was analyzed by quantitative real time PCR using Taqman probes purchased from ABI.
# Total RNA was isolated from cardiac tissue samples by using Trizol reagent (Gibco/BRL). Northern blots to detect microRNAs were performed as described previously described. A U6 probe served as a loading control (IDT). 10 μg of total RNA from cardiomyocytes or heart tissue was loaded on 20% acrylamide denaturing gels and transferred to Zeta-probe GT genomic blotting membranes (Bio-Rad) by electrophoresis. After transfer, the blots were cross-linked and baked at 80° C. for 1 hr. To maximize the sensitivity of miRNA detection, oligonucleotide probes were labeled with the Starfire Oligos Kit (IDT, Coralville, Iowa) and α-^32P dATP (Amersham or Perkin Elmer). Probes were hybridized to the membranes overnight at 39° C. in Rapid-hyb buffer (Amersham), after which they were washed twice for 10 minutes at 39° C. with 0.5×SSC containing 0.1% SDS. The blots were exposed and quantified by PhosphorImager analysis (GE HealthCare Life Sciences) and a U6 probe served as a loading control (ABI). The intensity of the radioactive signal was used to quantify the fold change in expression using a phosphorimager and ImageQuant (Bio-Rad).
# Western blot analysis. For Western blot analysis, Myosin was extracted from cardiac cells or tissue as described (H-amalainen, N. & Pette, D. Patterns of myosin isoforms in mammalian skeletal muscle fibres. Microsc Res Tech 30, 381-389 (1995)). MHC isoforms were detected by loading 0.1 ug protein lysate on a 4-15% gradient gel and separated by SDS PAGE and Western blotting was performed with mouse monoclonal anti-myosin (slow, skeletal M8421) (Sigma, Mo.), which is highly specific for Myh7.
# [2] = system: plasma miRNAs; assay: Real-time PCR of plasma miRNAs, 4% NaCl diet (Example 1)
# Text: Detection of miRNAs in plasma during various disease settings is showing increasing diagnostic promise (Cortez M A and Calin G A (2009) Expert Opin Biol Ther. 9, 703-711). To determine whether there is a specific miRNA that correlates with antimiR-208a efficacy, we examined a panel of muscle related miRNAs during HS treatment.
# (§1) RNA from plasma samples was isolated using Trizol LS Reagent (Invitrogen), using the manufacturer's protocol. Prior to RNA isolation, […] of two different synthetic C. elegans miRNA sequences were added to serve as internal controls for normalization of target miRNAs. The C. elegans sequences used were cel-miR-2 ([…], SEQ ID NO:5), and cel-lin-4 ([…]; SEQ ID NO:6) (Dharmacon). The final RNA pellet was re-suspended in a final volume equal to the initial plasma volume and 5 μl was used for subsequent RT-PCR reactions, as described above.
# [3] = system: plasma miRNAs; assay: Real-time PCR of plasma miRNAs, 6% NaCl diet (Example 3)
# Experimental: One week following the initiation of the 6.0% NaCl diet, rats were dosed subcutaneously (sc) with saline or oligonucleotides (M−10101, 5′-CTTTTTGCTCGTCTTA-3′ (SEQ ID NO: 12) or M-10591, 5′-TCCTAGAAAGAGTAGA-3′ (SEQ ID NO:13)) at 25 mg/kg every 2 weeks. Captopril or water were dosed daily by oral gavage. Echocardiography was performed every 2 weeks starting one week post […] dosing. The Captopril dose for rat was selected to match the standard human dose in man.
# as §1, with “Quantitative real-time PCR analysis from plasma. RNA from” for “RNA from”
# [4] = real-time PCR, Northern blot, listed as anti-miR-208a
# [5] = real-time PCR, listed as AntimiR-208a
# [6] = real-time PCR, listed as anti-miR-208a
substance,measurement,setting,value
"M-10101: antimiR targeting bases 2 to 17 of mature miR-208a, LNA and DNA linked by phosphorothioate bonds; 5′-CTTTTTGCTCGTCTTA-3′ (SEQ ID NO: 12) (all phosphorothioate, sugars by position and methylation of C not given here; LNA/DNA mixmer; listed as Homo sapiens)","HP1β (miR-208a target) protein, Western blot",[1]; listed as anti-miR-208a,target depression
same,"Myh7 protein, Western blot of ventricular tissue",[1]; listed as anti-miR-208a,dose-dependent regulation of Myh7 was confirmed
same,"Myh7 protein, Western blot of ventricular tissue",[1]; listed as antimiR-208a,dose-dependent reduction
same,miR-208b level in cardiac tissue,[1]; [4],dose-dependent decrease in miR-208b levels
same,miR-499 expression in cardiac tissue,[1]; [4],dose-dependent decrease in expression; also recorded: dose-dependent reduction in miR-499
same,miR-208b level in cardiac tissue,"[1]; real-time PCR, Northern blot, listed as antimiR-208a",significantly blunts this response
same,Myh6 mRNA in cardiac tissue,[1]; [5],dose-dependently increases Myh6 expression
same,Myh7b mRNA in cardiac tissue,[1]; [5],reduces Myh7b expression
same,Myh7 mRNA (HS diet-induced increase) in cardiac tissue,[1]; [5],dose-dependently reduced
same,Myh6 mRNA in cardiac tissue,[1]; [6],normalized the decreased expression
same,Myh7b mRNA in cardiac tissue,[1]; [6],dose-dependent reduction
same,Myh7 mRNA (HS diet-induced increase) in cardiac tissue,[1]; [6],dose-dependently blunted
same,Plasma miR-499,"[2]; 8 weeks after start of 4% HS diet, 7 weeks after onset of antimiR treatment, listed as antimiR-208a",significantly reduced; also recorded: significantly lowers
same,Plasma miR-423-5p,"[2]; 8 weeks after start of 4% HS diet, listed as antimiR-208a",reduced; also recorded: decrease
same,Plasma miR-1,[2]; Dahl hypertensive rats,no response
same,Plasma miR-208a,[2]; Dahl hypertensive rats,no response
same,Plasma miR-19b,[3],significantly increased
same,Plasma miR-223,[3],more significant decrease
same,"Plasma miR-423-5p, miR-106b, miR-16, miR-92a, miR-378, miR-210, miR-378*, miR-20b and miR-93",[3],decreased
